Results from patent US20250340457A1, “SYSTEMS AND METHODS FOR EXTRACTION OF FLUORINATED HYDROCARBONS” (Khalifa University of Science and Technology, priority 2024, published 2025).
Converted amounts (≈) assume the structure as drawn. Where two headings read alike, the source gives them in different places.

Legend:
[1] = cited from earlier work
[2] = Thermogravimetric analysis (onset decomposition temperature); assay type: physicochemical
Source text: FIG. 6B illustrates thermogravimetric profiles of TOPO, LauA, and TOPO: LauA (1:1), according to some embodiments. Thermogravimetric analysis is another essential solvent characterization method and is vital for identifying the maximum operational temperature range of a solvent. The onset decomposition temperature (Tonset) marks the start of a noticeable weight loss, indicating initial thermal degradation. Table 3 lists the onset temperatures for TOPO: LauA (1:1), and its thermogravimetric profile is shown in FIG. 6B along with the profiles of pure TOPO and lauric acid for comparison. Hydrogen bonding plays an important role in DES stability by reducing molecular volatility and increasing the energy needed for decomposition. […] This intermediate Tonset reflects the delicate balance of H-bonding strength in the DES that is affected from both the stability of the individual components and the new interactions they form when combined.

[3] = cited from earlier work; remark: listed apart in the source
rat = settings: cited from earlier work
[4] = 25° C.; cited from earlier work

## CCCCCCCCCCCC(=O)O [Lauric acid, lauric acid]
[1]
  water solubility: 0.4 µg/mL (≈ 2 µM)
[2]
  Onset decomposition temperature (Tonset): 207 °C

## O=C(O)C(F)(F)C(F)(F)C(F)(F)C(F)(F)C(F)(F)C(F)(F)C(F)(F)F [PFOA, perfluorooctanoic acid]
[3]
  serum elimination half-lives: 5.4 years

## O=S(=O)(O)C(F)(F)C(F)(F)C(F)(F)C(F)(F)C(F)(F)C(F)(F)C(F)(F)C(F)(F)F [PFOS, perfluorooctane sulfonic acid]
[3]
  serum elimination half-lives: 3.8 years

## CCCCCCCCP(=O)(CCCCCCCC)CCCCCCCC [TOPO, trioctylphosphine oxide]
rat; in vivo, po
  LD50 (oral, rat): 2,000 mg/kg
[1]
  water solubility: 0.15 µg/mL (≈ 0.388 µM)
[2]
  Onset decomposition temperature (Tonset): 281 °C

## C[N+](C)(C)CCO.[Cl-] [choline chloride, reference compound]
rat; oral
  LD50 (oral, rat): 3,900 mg/kg

## Cc1ccc(C(C)C)c(O)c1 [thymol]
[4]
  inherent density: 0.967 g/mL
